“Also recorded” adds a separate entry of the source. Read-outs that look alike come from different tables or passages of the source.
Columns and labels:
M.tb PpiB = assay: Surface plasmon resonance (SPR); format: binding, Mycobacterium tuberculosis; details: rPpiB immobilised on CM5 sensor chip, PBS, association 300 s, dissociation 150 s
[1] = tested on: M.smegmatis expressing M.tb PpiB (Ms_PpiB) and vector control (Ms_VC); format: cell-based, Mycobacterium smegmatis
[2] = tested on: M. smegmatis (Ms_VC and Ms_PpiB); format: cell-based, Mycobacterium smegmatis
[3] = tested on: M. smegmatis (Ms_VC and Ms_PpiB); format: cell-based, Mycobacterium smegmatis; details: for bacteriostatic effect at 100 µg/ml: up to 120 h; for Concentration up to which effect is bacteriostatic: 120 h as compared to 72 h; for bacteriostatic or bactericidal effect: M. smegmatis, summary statement
[4] = tested on: M. smegmatis (Ms_VC and Ms_PpiB); format: cell-based, Mycobacterium smegmatis; remark: listed apart in the source
[5] = tested on: M. smegmatis (Ms_VC and Ms_PpiB); format: cell-based, Mycobacterium smegmatis; remark: listed apart in the source
M.tuberculosis H37Rv = format: cell-based, Mycobacterium tuberculosis
Candida albicans = details: cited from earlier work
C.parapsilosis = details: cited from earlier work
Prokaryotic cyclophilins = details: cited from earlier work
[6] = cited from earlier work
Description: Our next step was to identify suitable drug(s) that could act as an inhibitor of PpiB protein. Developing new drugs is a long process taking about 10–15 years. Drug repurposing is gaining popularity as it allows bypassing of the cumbersome clinical trial of drugs for which the parameters of toxicity and effectiveness have already been tested and approved.

[7] = tested on: M. smegmatis (Ms_VC and Ms_PpiB); details: general statement, no reference given; cited from earlier work
E. coli = details: cited from earlier work
Description: Acarbose is widely used for the management of type 2 Diabetes mellitus as well. […] There are several bacteria that are invol ...

[8] = tested on: M. smegmatis (Ms_VC and Ms_PpiB); details: general statement, no reference given; cited from earlier work; remark: listed apart in the source
P.aeruginosa = details: cited from earlier work
Description: The presence of extracellular M.tb within biofilm like structure inside lung lesions of M.tb infected guinea pigs undergoing antibiotic treatment points to the possibility of biofilm formation within the host tissues.[7] Peptidyl-prolyl isomerases (PPIase), popularly known as cyclophilins, are ubiquitously expressed protein foldases which aid in protein folding or refolding by ...

cyclosporine-A
SPR interaction (M.tb PpiB): interact with M.tb PpiB in a dose dependent manner and bind with high affinity | biofilm formation, 100 µg/ml [1]: significant decrease (p < 0.05) in biofilm formation | biofilm formation, 1000 µg/ml [1]: complete inhibition of biofilm formation (p < 0.005) | biofilm formation, Ms_VC cells [1]: only basal levels of biofilm formation | biofilm formation, induced PpiB tet+ [1]: significant decrease in biofilm formation | biofilm formation, uninduced PpiB tet- [1]: did not exhibit any significant change | Threshold concentration at which viability was not significantly affected [2]: 100 µg/mL | viability, cyclosporine-A below 250 µg/ml [2]: insignificant effect | bacteriostatic effect at 100 µg/ml [3]: bacteriostatic effect | Concentration up to which effect is bacteriostatic [3]: ≤ 500 µg/mL | bacteriostatic or bactericidal effect ([3]; listed as cyclosporine A): bacteriostatic activity | bacteriostatic or bactericidal effect ([3]; listed as cyclosporine-A): bacteriostatic effect | reduction in dosage of anti-TB drugs [4]: at least two-fold | decrease in ethambutol dosage with cyclosporine-A [5]: decreased four-fold | biofilm formation in H37Rv, cyclosporine-A (M.tuberculosis H37Rv): significant reduction (Fig. 5a) in biofilm formation | effect on H37Rv biofilm formation (M.tuberculosis H37Rv): disrupted M.tb H37Rv biofilm formation; also recorded: Suppressive effect | combination with fluconazole against C.albicans biofilms (Candida albicans): effective against biofilms formed by C.albicans | sensitisation of C. albicans biofilm to antifungal drugs (Candida albicans): sensitises drug-tolerant biofilm of Candida albicans to various antifungal drugs | sensitivity of C.albicans to fluconazole (Candida albicans): imparts sensitivity to C.albicans towards fluconazole | synergy with antifungals against C.parapsilosis (C.parapsilosis): acts synergistically to improve the efficacy of antifungals against C.parapsilosis | affinity for prokaryotic cyclophilins (Prokaryotic cyclophilins): weak affinity

CCN(CC)CCCC(C)Nc1ccnc2cc(Cl)ccc12 (stereo not drawn) [chloroquine]
repurposing outcome in patients [6]: improving outcome of cancer drug Erlotinib

Cc1ccc(-c2cc(C(F)(F)F)nn2-c2ccc(S(N)(=O)=O)cc2)cc1 [Celebrex]
repurposing outcome in patients [6]: decreasing polyp formation in colon cancer patients

NNC(=O)c1ccncc1 [Isoniazid, isoniazid]
dosage of isoniazid with cyclosporine-A [4]: 32 µg/mL | fold decrease in dosage of isoniazid [4]: 2–4 fold | dosage of isoniazid, absence of cyclosporine-A ([4]; Fig. 4a, PpiB tet+ biofilm, 7 days then 68 h isoniazid): 64 µg/mL | dosage of isoniazid, absence of acarbose ([4]; Fig. 4b, PpiB (tet+), 68 h): 64 µg/mL | dosage of isoniazid with GaNP ([4]; GaNP 50 µg/ml, Fig. 4c, 68 h): 16 µg/mL | dosage of isoniazid with acarbose ([4]; acarbose 500 µg/ml, Fig. 4b, PpiB (tet+), 68 h): 32 µg/mL | dosage of isoniazid, normally effective [7]: 16 µg/mL

C[C@H]1O[C@H](O[C@H]2[C@H](O)[C@@H](O)[C@@H](O[C@H]3[C@H](O)[C@@H](O)C(O)O[C@@H]3CO)O[C@@H]2CO)[C@H](O)[C@@H](O)[C@@H]1N[C@H]1C=C(CO)[C@@H](O)[C@H](O)[C@H]1O (stereo partly drawn) [Acarbose, acarbose]
SPR interaction (M.tb PpiB): interact with M.tb PpiB in a dose dependent manner and bind with high affinity | biofilm formation, induced PpiB tet+ [1]: significant decrease in biofilm formation | biofilm formation, acarbose 500 µg/ml and above ([1]; 500 µg/ml and above): inhibited biofilm formation | biofilm formation, uninduced PpiB tet- ([1]; Ms_PpiB uninduced by anhydrotetracycline (PpiB tet-)): did not exhibit any significant change | biofilm formation, Ms_VC cells ([1]; Ms_VC, presence or absence of agent): only basal levels of biofilm formation | biofilm formation, 500 and 1000 µg/ml ([1]; acarbose 500 and 1000 µg/ml, Ms_PpiB, compared to no acarbose, 7 days): significant inhibition in the biofilm formation | biofilm formation, lower concentrations ([1]; acarbose at lower concentrations, VC tet- and PpiB tet-, "Hormetic effect"): transient increase in biofilm formation | biofilm formation, acarbose upto 100 µg/ml ([1]; lower concentration (upto 100 µg/ml)): increase in biofilm formation | viability, acarbose 10 mg/ml ([2]; 10 mg/ml, data not shown): no significant effect | Threshold concentration at which viability was not significantly affected ([2]; M. smegmatis expressing PpiB, alamar blue): 1000 µg/mL | viability, acarbose up to 1000 µg/ml ([2]; up to 1000 µg/ml, Ms_VC or Ms_PpiB): no effect | bacteriostatic effect at 100 µg/ml [3]: bacteriostatic effect | Concentration up to which effect is bacteriostatic [3]: ≤ 1000 µg/mL | bacteriostatic or bactericidal effect [3]: bacteriostatic effect; also recorded: bacteriostatic activity | reduction in dosage of anti-TB drugs ([4]; co-treatment, isoniazid/ethambutol): at least two-fold | efficacy in decreasing the dosage of ethambutol ([5]; acarbose, data not shown): insignificant | maltose importer block and growth of E. coli (E. coli): block maltose importer and consequently suppress growth of E. coli

CC[C@@H](CO)NCCN[C@@H](CC)CO [Ethambutol, ethambutol]
dosage of ethambutol with cyclosporine-A [5]: 4 µg/mL | dosage of ethambutol, control without GaNP ([5]; Fig. 4e, control): 16 µg/mL | dosage of ethambutol, absence of cyclosporine-A ([5]; Fig. 4d, PpiB tet+, 68 h): 16 µg/mL | dosage of ethambutol with GaNP ([5]; GaNP 50 µg/ml, Fig. 4e): 1 µg/mL | dosage of ethambutol, normally effective [8]: 1 µg/mL

CN(C)C(=N)N=C(N)N [metformin]
repurposing outcome in patients [6]: lowering morbidity of TB patients

O=C(Nc1ccc([N+](=O)[O-])cc1Cl)c1cc(Cl)ccc1O [niclosamide]
effect against P.aeruginosa biofilm (P.aeruginosa): inhibitory effects against biofilms formed by P.aeruginosa
